Key:
Assay in all cases: relative viability (nuclei count vs DMSO), 5 days (fraction); higher = more cells survive
[1] = test system: NCI-H3122
Summary of the method: (§1)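 Cells from lung cancer lines were seeded into 1536-well plates and, one day later, dosed by pin tool. Treatments were either a single drug or a fixed dose of an anchor drug with five library-drug doses (not always all listed) in √10 steps. After 5 days, nuclei were stained in a one-step fixation (final 0.05% Triton X-100, 1% formaldehyde, 1 ug/ml Hoechst) and counted on 4× images, and relative viability is the treated-to-vehicle nuclei ratio, as the median of duplicate plates.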

[2] = test system: NCI-H441
Summary of the method: as §1

[3] = test system: NCI-H661
Summary of the method: as §1

[4] = test system: HCC-366
Summary of the method: as §1

[5] = test system: NCI-H1650
Summary of the method: as §1

[6] = test system: 201T
Summary of the method: as §1

[7] = test system: LOU-NH91
Summary of the method: as §1

[8] = test system: LK-2
Summary of the method: as §1

[9] = test system: NCI-H1666
Summary of the method: as §1

[10] = test system: NCI-H460
Summary of the method: as §1

[11] = test system: ABC-1
Summary of the method: as §1

[12] = test system: SW 900
Summary of the method: as §1

[13] = test system: HARA
Summary of the method: as §1

[14] = test system: BEN
Summary of the method: as §1

[15] = test system: EKVX
Summary of the method: as §1

[16] = test system: NCI-H2170
Summary of the method: as §1

[17] = test system: NCI-H2009
Summary of the method: as §1

[18] = test system: NCI-H1437
Summary of the method: as §1

[19] = test system: PC-14
Summary of the method: as §1

[20] = test system: CAL-12T
Summary of the method: as §1

[21] = test system: NCI-H727
Summary of the method: as §1

[22] = test system: COR-L 105
Summary of the method: as §1

Cc1sc2c(c1C)C(c1ccc(Cl)cc1)=N[C@@H](CC(=O)OC(C)(C)C)c1nnc(C)n1-2 [JQ1] + Cc1cc(Nc2cc(N3CCN(C)CC3)nc(Sc3ccc(NC(=O)C4CC4)cc3)n2)n[nH]1 [Tozasertib] (partner 0.1 µM)
relative viability ([1]; first compound 0.04 µM): 0.353 | relative viability ([1]; first compound 0.4 µM): 0.189 | relative viability ([1]; first compound 1.265 µM): 0.0696 | relative viability ([1]; first compound 4 µM): 0.0737 | relative viability ([2]; first compound 0.04 µM): 0.629 | relative viability ([2]; first compound 0.1265 µM): 0.66 | relative viability ([2]; first compound 0.4 µM): 0.631 | relative viability ([2]; first compound 1.265 µM): 0.417 | relative viability ([2]; first compound 4 µM): 0.219 | relative viability ([3]; first compound 0.04 µM): 0.37 | relative viability ([3]; first compound 0.1265 µM): 0.486 | relative viability ([3]; first compound 0.4 µM): 0.37 | relative viability ([3]; first compound 1.265 µM): 0.435 | relative viability ([3]; first compound 4 µM): 0.401 | relative viability ([4]; first compound 0.04 µM): 0.112 | relative viability ([4]; first compound 0.4 µM): 0.0922 | relative viability ([4]; first compound 1.265 µM): 0.0515 | relative viability ([4]; first compound 4 µM): 0.0708 | relative viability ([5]; first compound 0.04 µM): 0.355 | relative viability ([5]; first compound 0.1265 µM): 0.289 | relative viability ([5]; first compound 0.4 µM): 0.284 | relative viability ([5]; first compound 1.265 µM): 0.124 | relative viability ([5]; first compound 4 µM): 0.135 | relative viability ([6]; first compound 0.04 µM): 0.971 | relative viability ([6]; first compound 0.1265 µM): 0.651 | relative viability ([6]; first compound 0.4 µM): 0.613 | relative viability ([6]; first compound 1.265 µM): 0.566 | relative viability ([6]; first compound 4 µM): 0.383 | relative viability ([7]; first compound 0.04 µM): 0.653 | relative viability ([7]; first compound 0.1265 µM): 0.453 | relative viability ([7]; first compound 0.4 µM): 0.255 | relative viability ([7]; first compound 1.265 µM): 0.359 | relative viability ([7]; first compound 4 µM): 0.299 | relative viability ([8]; first compound 0.04 µM): 0.18 | relative viability ([8]; first compound 0.1265 µM): 0.192 | relative viability ([8]; first compound 0.4 µM): 0.195 | relative viability ([8]; first compound 1.265 µM): 0.151 | relative viability ([8]; first compound 4 µM): 0.166 | relative viability ([9]; first compound 0.04 µM): 0.569 | relative viability ([9]; first compound 0.1265 µM): 0.534 | relative viability ([9]; first compound 0.4 µM): 0.484 | relative viability ([9]; first compound 1.265 µM): 0.36 | relative viability ([9]; first compound 4 µM): 0.354 | relative viability ([10]; first compound 0.04 µM): 0.402 | relative viability ([10]; first compound 0.4 µM): 0.119 | relative viability ([10]; first compound 1.265 µM): 0.0684 | relative viability ([10]; first compound 4 µM): 0.0339 | relative viability ([11]; first compound 0.04 µM): 0.187 | relative viability ([11]; first compound 0.1265 µM): 0.18 | relative viability ([11]; first compound 0.4 µM): 0.196 | relative viability ([11]; first compound 1.265 µM): 0.175 | relative viability ([11]; first compound 4 µM): 0.179 | relative viability ([12]; first compound 0.04 µM): 0.647 | relative viability ([12]; first compound 0.1265 µM): 0.641 | relative viability ([12]; first compound 0.4 µM): 0.421 | relative viability ([12]; first compound 1.265 µM): 0.297 | relative viability ([12]; first compound 4 µM): 0.227 | relative viability ([13]; first compound 0.04 µM): 0.112 | relative viability ([13]; first compound 0.1265 µM): 0.122 | relative viability ([13]; first compound 0.4 µM): 0.123 | relative viability ([13]; first compound 1.265 µM): 0.08 | relative viability ([13]; first compound 4 µM): 0.0561 | relative viability ([14]; first compound 0.04 µM): 0.57 | relative viability ([14]; first compound 0.1265 µM): 0.535 | relative viability ([14]; first compound 0.4 µM): 0.5 | relative viability ([14]; first compound 1.265 µM): 0.365 | relative viability ([14]; first compound 4 µM): 0.28 | relative viability ([15]; first compound 0.04 µM): 0.317 | relative viability ([15]; first compound 0.1265 µM): 0.361 | relative viability ([15]; first compound 0.4 µM): 0.336 | relative viability ([15]; first compound 1.265 µM): 0.247 | relative viability ([15]; first compound 4 µM): 0.185 | relative viability ([16]; first compound 0.04 µM): 0.711 | relative viability ([16]; first compound 0.1265 µM): 0.64 | relative viability ([16]; first compound 0.4 µM): 0.467 | relative viability ([16]; first compound 1.265 µM): 0.352 | relative viability ([16]; first compound 4 µM): 0.194 | relative viability ([17]; first compound 0.04 µM): 0.697 | relative viability ([17]; first compound 0.1265 µM): 0.414 | relative viability ([17]; first compound 0.4 µM): 0.385 | relative viability ([17]; first compound 1.265 µM): 0.199 | relative viability ([17]; first compound 4 µM): 0.187 | relative viability ([18]; first compound 0.04 µM): 0.421 | relative viability ([18]; first compound 0.1265 µM): 0.357 | relative viability ([18]; first compound 0.4 µM): 0.357 | relative viability ([18]; first compound 1.265 µM): 0.224 | relative viability ([18]; first compound 4 µM): 0.174 | relative viability ([19]; first compound 0.04 µM): 0.593 | relative viability ([19]; first compound 0.1265 µM): 0.385 | relative viability ([19]; first compound 0.4 µM): 0.314 | relative viability ([19]; first compound 1.265 µM): 0.125 | relative viability ([19]; first compound 4 µM): 0.0518 | relative viability ([20]; first compound 0.04 µM): 0.274 | relative viability ([20]; first compound 0.1265 µM): 0.238 | relative viability ([20]; first compound 0.4 µM): 0.24 | relative viability ([20]; first compound 1.265 µM): 0.132 | relative viability ([20]; first compound 4 µM): 0.122 | relative viability ([21]; first compound 0.04 µM): 0.714 | relative viability ([21]; first compound 0.1265 µM): 0.516 | relative viability ([21]; first compound 0.4 µM): 0.459 | relative viability ([21]; first compound 1.265 µM): 0.397 | relative viability ([21]; first compound 4 µM): 0.387 | relative viability ([22]; first compound 0.04 µM): 0.359 | relative viability ([22]; first compound 0.1265 µM): 0.315 | relative viability ([22]; first compound 0.4 µM): 0.297 | relative viability ([22]; first compound 1.265 µM): 0.235 | relative viability ([22]; first compound 4 µM): 0.112

From the supplement of paper PMC10307832
